Measured values: PubChem BioAssay (NCI)
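Grown in 96-well plates, cells were treated for 48 hours with each compound at five concentrations. Insufficient inhibition: endpoint recorded as highest concentration tested. TGI: concentration producing complete growth inhibition.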

Key:
Assay in all cases: DTP human tumour cell line panel, 48 h
HOP-62 NSCLC = system: HOP-62 NSCLC
SW-620 colon = system: SW-620 colon
RXF 393 renal = system: RXF 393 renal
ACHN renal = system: ACHN renal
M14 melanoma = system: M14 melanoma
A498 renal = system: A498 renal
SF-539 CNS = system: SF-539 CNS
SF-268 CNS = system: SF-268 CNS
HCT-15 colon = system: HCT-15 colon
SK-MEL-28 melanoma = system: SK-MEL-28 melanoma
HCT-116 colon = system: HCT-116 colon
NCI-H226 lung = system: NCI-H226 lung
A549 NSCLC = system: A549 NSCLC
HL-60(TB) leukemia = system: HL-60(TB) leukemia
NCI-H23 lung = system: NCI-H23 lung
SN12C renal = system: SN12C renal
RPMI-8226 leukemia = system: RPMI-8226 leukemia
BT-549 breast = system: BT-549 breast
MDA-MB-231 breast = system: MDA-MB-231 breast
OVCAR-3 ovarian = system: OVCAR-3 ovarian
K-562 leukemia = system: K-562 leukemia
CAKI-1 renal = system: CAKI-1 renal
HOP-92 NSCLC = system: HOP-92 NSCLC
KM12 colon = system: KM12 colon
MOLT-4 leukemia = system: MOLT-4 leukemia
SK-OV-3 ovarian = system: SK-OV-3 ovarian
DU-145 prostate = system: DU-145 prostate
UACC-62 melanoma = system: UACC-62 melanoma
SF-295 CNS = system: SF-295 CNS
HT29 colon = system: HT29 colon
NCI-H522 lung = system: NCI-H522 lung
SK-MEL-2 melanoma = system: SK-MEL-2 melanoma
SNB-19 CNS = system: SNB-19 CNS
CCRF-CEM leukemia = system: CCRF-CEM leukemia
NCI-H460 lung = system: NCI-H460 lung
MDA-MB-435 = system: MDA-MB-435
NCI/ADR-RES ovarian = system: NCI/ADR-RES ovarian
T-47D breast = system: T-47D breast
IGROV1 ovarian = system: IGROV1 ovarian
UO-31 renal = system: UO-31 renal
MDA-N = system: MDA-N
SK-MEL-5 melanoma = system: SK-MEL-5 melanoma
OVCAR-5 ovarian = system: OVCAR-5 ovarian
SNB-75 CNS = system: SNB-75 CNS
MALME-3M melanoma = system: MALME-3M melanoma
COLO 205 colon = system: COLO 205 colon
OVCAR-8 ovarian = system: OVCAR-8 ovarian
TK-10 renal = system: TK-10 renal
UACC-257 melanoma = system: UACC-257 melanoma
PC-3 prostate = system: PC-3 prostate
EKVX NSCLC = system: EKVX NSCLC
U251 CNS = system: U251 CNS
LOX IMVI melanoma = system: LOX IMVI melanoma
786-0 renal = system: 786-0 renal
HS 578T breast = system: HS 578T breast
HCC-2998 colon = system: HCC-2998 colon
SR leukemia = system: SR leukemia
OVCAR-4 ovarian = system: OVCAR-4 ovarian
MCF7 breast = system: MCF7 breast

COC(=O)Cc1c([C@H]2[C@H](CC(=O)OC)c3ccccc3N2C(C)=O)[nH]c2ccccc12 showed a TGI (HOP-62 NSCLC) greater than 100 µM, a TGI (SW-620 colon) greater than 100 µM and a TGI (RXF 393 renal) greater than 100 µM. For the same compound, the TGI (ACHN renal) was greater than 100 µM, the TGI (M14 melanoma) was greater than 100 µM and the TGI (A498 renal) was greater than 100 µM. For the same compound, the TGI (SF-539 CNS) was greater than 100 µM, the TGI (SF-268 CNS) was greater than 100 µM and the TGI (HCT-15 colon) was greater than 100 µM. The TGI (SK-MEL-28 melanoma) was greater than 100 µM, the TGI (HCT-116 colon) was greater than 100 µM and the TGI (NCI-H226 lung) was greater than 100 µM. The TGI (A549 NSCLC) was greater than 100 µM, the TGI (HL-60(TB) leukemia) was greater than 100 µM and the TGI (NCI-H23 lung) was greater than 100 µM. It also gave a TGI (SN12C renal) greater than 100 µM, a TGI (RPMI-8226 leukemia) greater than 100 µM and a TGI (BT-549 breast) greater than 100 µM. The TGI (MDA-MB-231 breast) was greater than 100 µM, the TGI (OVCAR-3 ovarian) was greater than 100 µM and the TGI (K-562 leukemia) was greater than 100 µM. It also gave a TGI (CAKI-1 renal) greater than 100 µM, a TGI (HOP-92 NSCLC) greater than 100 µM and a TGI (KM12 colon) greater than 100 µM. For the same compound, the TGI (MOLT-4 leukemia) was greater than 100 µM, the TGI (SK-OV-3 ovarian) was greater than 100 µM and the TGI (DU-145 prostate) was greater than 100 µM. For the same compound, the TGI (UACC-62 melanoma) was greater than 100 µM, the TGI (SF-295 CNS) was greater than 100 µM and the TGI (HT29 colon) was greater than 100 µM. The TGI (NCI-H522 lung) was greater than 100 µM, the TGI (SK-MEL-2 melanoma) was greater than 100 µM and the TGI (SNB-19 CNS) was greater than 100 µM. For the same compound, the TGI (CCRF-CEM leukemia) was greater than 100 µM, the TGI (NCI-H460 lung) was greater than 100 µM and the TGI (MDA-MB-435) was greater than 100 µM. For the same compound, the TGI (NCI/ADR-RES ovarian) was greater than 100 µM, the TGI (T-47D breast) was greater than 100 µM and the TGI (IGROV1 ovarian) was greater than 100 µM. For the same compound, the TGI (UO-31 renal) was greater than 100 µM, the TGI (MDA-N) was greater than 100 µM and the TGI (SK-MEL-5 melanoma) was greater than 100 µM. The TGI (OVCAR-5 ovarian) was greater than 100 µM, the TGI (SNB-75 CNS) was greater than 100 µM and the TGI (MALME-3M melanoma) was greater than 100 µM. The TGI (COLO 205 colon) was greater than 100 µM, the TGI (OVCAR-8 ovarian) was greater than 100 µM and the TGI (TK-10 renal) was greater than 100 µM. The TGI (UACC-257 melanoma) was greater than 100 µM, the TGI (PC-3 prostate) was greater than 100 µM and the TGI (EKVX NSCLC) was greater than 100 µM. It also gave a TGI (U251 CNS) greater than 100 µM, a TGI (LOX IMVI melanoma) greater than 100 µM and a TGI (786-0 renal) greater than 100 µM. It also gave a TGI (HS 578T breast) greater than 100 µM.

CCCCc1ccc(Nc2nc3c(ncn3COCCO)c(=O)[nH]2)cc1 gave a TGI (HOP-62 NSCLC) greater than 100 µM, a TGI (SW-620 colon) greater than 100 µM and a TGI (RXF 393 renal) greater than 100 µM. The TGI (ACHN renal) was greater than 100 µM, the TGI (M14 melanoma) was greater than 100 µM and the TGI (A498 renal) was greater than 100 µM. For the same compound, the TGI (HCC-2998 colon) was greater than 100 µM, the TGI (SF-539 CNS) was greater than 100 µM and the TGI (SF-268 CNS) was greater than 100 µM. For the same compound, the TGI (HCT-15 colon) was greater than 100 µM, the TGI (HCT-116 colon) was greater than 100 µM and the TGI (NCI-H226 lung) was greater than 100 µM. It also gave a TGI (A549 NSCLC) greater than 100 µM, a TGI (HL-60(TB) leukemia) greater than 100 µM and a TGI (SR leukemia) greater than 100 µM. The TGI (NCI-H23 lung) was greater than 100 µM, the TGI (SN12C renal) was greater than 100 µM and the TGI (OVCAR-4 ovarian) was greater than 100 µM. For the same compound, the TGI (RPMI-8226 leukemia) was greater than 100 µM, the TGI (BT-549 breast) was greater than 100 µM and the TGI (MDA-MB-231 breast) was greater than 100 µM. It also gave a TGI (OVCAR-3 ovarian) greater than 100 µM, a TGI (K-562 leukemia) greater than 100 µM and a TGI (HOP-92 NSCLC) greater than 100 µM. The TGI (KM12 colon) was greater than 100 µM, the TGI (MOLT-4 leukemia) was greater than 100 µM and the TGI (SK-OV-3 ovarian) was greater than 100 µM. The TGI (DU-145 prostate) was greater than 100 µM, the TGI (UACC-62 melanoma) was greater than 100 µM and the TGI (SF-295 CNS) was greater than 100 µM. It also gave a TGI (HT29 colon) greater than 100 µM, a TGI (NCI-H522 lung) greater than 100 µM and a TGI (SK-MEL-2 melanoma) greater than 100 µM. It also gave a TGI (SNB-19 CNS) greater than 100 µM, a TGI (CCRF-CEM leukemia) greater than 100 µM and a TGI (MDA-MB-435) greater than 100 µM. The TGI (NCI/ADR-RES ovarian) was greater than 100 µM, the TGI (T-47D breast) was greater than 100 µM and the TGI (IGROV1 ovarian) was greater than 100 µM. The TGI (UO-31 renal) was greater than 100 µM, the TGI (MDA-N) was greater than 100 µM and the TGI (MCF7 breast) was greater than 100 µM. The TGI (SK-MEL-5 melanoma) was greater than 100 µM, the TGI (OVCAR-5 ovarian) was greater than 100 µM and the TGI (SNB-75 CNS) was greater than 100 µM. For the same compound, the TGI (MALME-3M melanoma) was greater than 100 µM, the TGI (COLO 205 colon) was greater than 100 µM and the TGI (OVCAR-8 ovarian) was greater than 100 µM. It also gave a TGI (TK-10 renal) greater than 100 µM, a TGI (UACC-257 melanoma) greater than 100 µM and a TGI (EKVX NSCLC) greater than 100 µM. It also gave a TGI (U251 CNS) greater than 100 µM, a TGI (LOX IMVI melanoma) greater than 100 µM and a TGI (786-0 renal) greater than 100 µM. The TGI (HS 578T breast) was greater than 100 µM.

Nc1ccc(S(=O)(=O)Nc2nc3ccccc3nc2N2CCCCC2)cc1 gave a TGI (HOP-62 NSCLC) greater than 100 µM, a TGI (SW-620 colon) greater than 100 µM and a TGI (RXF 393 renal) greater than 100 µM. It also gave a TGI (ACHN renal) greater than 100 µM, a TGI (M14 melanoma) greater than 100 µM and a TGI (HCC-2998 colon) greater than 100 µM. It also gave a TGI (SF-539 CNS) greater than 100 µM, a TGI (SF-268 CNS) greater than 100 µM and a TGI (HCT-15 colon) greater than 100 µM. It also gave a TGI (SK-MEL-28 melanoma) greater than 100 µM, a TGI (HCT-116 colon) greater than 100 µM and a TGI (NCI-H226 lung) greater than 100 µM. It also gave a TGI (A549 NSCLC) greater than 100 µM, a TGI (HL-60(TB) leukemia) greater than 100 µM and a TGI (SR leukemia) greater than 100 µM. It also gave a TGI (NCI-H23 lung) greater than 100 µM, a TGI (SN12C renal) greater than 100 µM and a TGI (OVCAR-4 ovarian) of 87.7 µM. The TGI (RPMI-8226 leukemia) was greater than 100 µM, the TGI (BT-549 breast) was greater than 100 µM and the TGI (MDA-MB-231 breast) was greater than 100 µM. It also gave a TGI (OVCAR-3 ovarian) greater than 100 µM, a TGI (K-562 leukemia) greater than 100 µM and a TGI (CAKI-1 renal) greater than 100 µM. The TGI (HOP-92 NSCLC) was greater than 100 µM, the TGI (KM12 colon) was greater than 100 µM and the TGI (MOLT-4 leukemia) was greater than 100 µM. The TGI (SK-OV-3 ovarian) was greater than 100 µM, the TGI (DU-145 prostate) was greater than 100 µM and the TGI (UACC-62 melanoma) was greater than 100 µM. The TGI (SF-295 CNS) was greater than 100 µM, the TGI (HT29 colon) was greater than 100 µM and the TGI (NCI-H522 lung) was greater than 100 µM. For the same compound, the TGI (SK-MEL-2 melanoma) was greater than 100 µM, the TGI (SNB-19 CNS) was greater than 100 µM and the TGI (CCRF-CEM leukemia) was greater than 100 µM. The TGI (NCI-H460 lung) was greater than 100 µM, the TGI (MDA-MB-435) was greater than 100 µM and the TGI (NCI/ADR-RES ovarian) was greater than 100 µM. It also gave a TGI (T-47D breast) greater than 100 µM, a TGI (IGROV1 ovarian) greater than 100 µM and a TGI (UO-31 renal) of 55.1 µM. It also gave a TGI (MDA-N) greater than 100 µM, a TGI (MCF7 breast) greater than 100 µM and a TGI (SK-MEL-5 melanoma) greater than 100 µM. It also gave a TGI (OVCAR-5 ovarian) greater than 100 µM, a TGI (SNB-75 CNS) greater than 100 µM and a TGI (MALME-3M melanoma) greater than 100 µM. It also gave a TGI (COLO 205 colon) greater than 100 µM, a TGI (OVCAR-8 ovarian) greater than 100 µM and a TGI (TK-10 renal) greater than 100 µM. For the same compound, the TGI (UACC-257 melanoma) was greater than 100 µM, the TGI (PC-3 prostate) was greater than 100 µM and the TGI (EKVX NSCLC) was greater than 100 µM. For the same compound, the TGI (U251 CNS) was greater than 100 µM, the TGI (LOX IMVI melanoma) was greater than 100 µM and the TGI (786-0 renal) was greater than 100 µM. It also gave a TGI (HS 578T breast) greater than 100 µM.
